This note sets out measurements from patent US12617771B2, “Diphenylpyrazole compound, and preparation method therefor and application thereof” (NORTHWEST A&F UNIVERSITY, priority 2021, dated 2026).

For series [1], the system named is resistant strains of Plutella xylostella. Nature of the series: Insecticidal synergistic activity with chlorantraniliprole, leaf dip, resistant strains (Yunnan). The series is classed as in vivo. The conditions noted are these: for Resistance ratio to chlorantraniliprole: chlorantraniliprole alone or with 200 mg/L synergist, 48 hours; for LC50 of chlorantraniliprole solution: in vivo. As for the experimental part:
(§1) Experiment: 96% chlorantraniliprole (Chl) original drug was prepared into mother liquor with a concentration of 50000 mg/L. During the test, 6 treatment solutions with concentrations of 500, 250, 125, 62.5, 31.25 and 15.63 mg/L were prepared. 200 mg/L of the compound PXG22 of the present invention was added to each treatment solution, 200 mg/L of diethyl maleate (DEM) was used as the control synergist, and water was used as another control. The Plutella xylostella (Linnaeus) larvae was collected from a vegetable field in Yunnan Province. Healthy 3rd instar larvae of the same age were selected for indoor biological activity assay.
(§2) Clean wild cabbage leaves were cut into discs with a diameter of 6.5 cm (avoiding main veins). The leaves were soaked in the pesticide solution for 10 seconds, then taken out, dried at 25° C., and placed in a petri dish with a diameter of 6.5 cm. 10 larvae of the resistant strains of Plutella xylostella at the early stage of 3rd instar were placed in each petri dish, which was covered with double-layer absorbent roll paper, and covered by the upper cover of the petri dish. It was placed face up in an incubator at a temperature of 25±1° C., a relative humidity of 65%-70%, and a light ratio (L:D) of 16: 8 h. Each treatment was replicated 4 times with 10 larvae per replicate. […] The test process is strictly in accordance with the standard: NY/T 1154.7-2006.
(§3) Experimental data analysis was carried out using practical statistical analysis and its computer processing platform (DPS) (TANG Qiyi et al., 1997). The toxicity regression equation of each agent was established, LC50 value and 95% confidence limit were calculated.

For series [2], the system named is ultra-high resistant strains of Plutella xylostella (Huizhou insect source). The series can be described thus: Insecticidal synergistic activity with chlorantraniliprole, ultra-high resistant strains (Huizhou insect source). Type of series: in vivo. The conditions noted are these: for Resistance ratio to chlorantraniliprole: chlorantraniliprole alone or with 200 mg/L synergist, ultra-high resistant strains (Huizhou); for LC50 of chlorantraniliprole solution: in vivo. On the procedure: as §1, §2, §3
Experiment: The method was the same as in Experimental Example 4. The tested Plutella xylostella was ultra-high resistance strains to chlorantraniliprole (Huizhou insect source). The compound PXG22 of the present invention was added at a concentration of 200 mg/L. The control synergist diethyl maleate (DEM) was added at a concentration of 200 mg/L.

Series [3] concerns high resistant strains I of Plutella xylostella (Lianzhou insect source). Nature of the series: Insecticidal synergistic activity with chlorantraniliprole, high resistant strains I (Lianzhou insect source). Type of series: in vivo. As to conditions: for Resistance ratio to chlorantraniliprole: high resistant strains I (Lianzhou). As for the experimental part: as §1, §2, §3
Experiment: The method was the same as in Experimental example 4, and the tested Plutella xylostella was the high resistant strains I against chlorantraniliprole (Lianzhou source). The added concentrations of the compound PXG22 of the present invention were 200 mg/L, 100 mg/L and 50 mg/L, and the added concentration of diethyl maleate (DEM) of the control synergist was maintained at 200 mg/L.

For series [4], the system named is high resistant strains II of Plutella xylostella (Lianzhou insect source). The series can be described thus: Insecticidal synergistic activity with chlorantraniliprole, high resistant strains II (Lianzhou insect source). Type of series: in vivo. As to conditions: for Resistance ratio to chlorantraniliprole: high resistant strains II (Lianzhou). As for the experimental part: as §1, §2, §3
Experiment: The method was the same as in Experimental example 4, and the tested Plutella xylostella was the high resistant strains II against chlorantraniliprole (Lianzhou source). The added concentrations of the compound PXG22 of the present invention were 200 mg/L, 100 mg/L, 50 mg/L and 25 mg/L, and the added concentration of diethyl maleate (DEM) of the control synergist was maintained at 200 mg/L.

In series [5] the test system is resistant strains of Plutella xylostella. The series can be described thus: Insecticidal synergistic activity with indoxacarb, leaf dip, resistant strains (Huizhou). The conditions noted are these: for LC50 of indoxacarb: in vivo; for Resistance ratio to indoxacarb: indoxacarb alone or with 200 mg/L synergist, 48 hours. Type of series: in vivo. On the procedure: as §1, with “Experiment: 95% indoxacarb (Ind)” for “Experiment: 96% chlorantraniliprole (Chl)”, “the compounds PXG1, PXG2 and” for “the compound”, “invention were” for “invention was”, “in Huizhou city, Guangdong” for “in Yunnan”
as §2, §3

The target in the next series is Plutella xylostella GSTs. The series can be described thus: Inhibition of total GSTs enzyme of Plutella xylostella (CDNB method). The series is classed as biochemical. In short, it runs like this: (§4)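 Total GSTs were taken from the 14,000 g supernatant of larval/nymph homogenate in 100 mM sodium phosphate with 1 mM EDTA, pH 7.2. Enzyme (5 μg) was preincubated with compound in PBS pH 7.2 containing 1 mM GSH for 10 min at 30 °C, then started with buffer containing 1 mM CDNB. IC50 was derived from inhibition of the 5-min ΔA340, done in triplicate.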

A further series deals with Carposina sasakii GSTs. Nature of the series: Inhibition of total GSTs enzyme of Carposina sasakii (CDNB method). Type of series: biochemical. In a few lines: as §4
The next series has as its target Spodoptera litura GSTs. The series can be described thus: Inhibition of total GSTs enzyme of Spodoptera litura (CDNB method). The series is classed as biochemical. In short, it runs like this: as §4
Another series relates to Mythimna separata GSTs. Nature of the series: Inhibition of total GSTs enzyme of Mythimna separata (CDNB method). Type of series: biochemical. As to conditions: 100 μM. In a few lines: as §4
The target of a further series is Pyrausta nubilalis GSTs. The series can be described thus: Inhibition of total GSTs enzyme of Pyrausta nubilalis (CDNB method). Type of series: biochemical. In a few lines: as §4
The target in a further series is Chilo suppressalis GSTs. Nature of the series: Inhibition of total GSTs enzyme of Chilo suppressalis (CDNB method). Type of series: biochemical. In a few lines: as §4
In another series the test system is Nilaparvata lugens GSTs. Nature of the series: Inhibition of total GSTs enzyme of Nilaparvata lugens (CDNB method). Type of series: biochemical. The conditions noted are these: 100 μM. In a few lines:
as §4

The test system of series [6] is Spodoptera frugiperda GSTs. Nature of the series: Inhibition of total GSTs enzyme of Spodoptera frugiperda (CDNB method). The series is classed as biochemical. As to conditions: 100 μM. In a few lines: as §4
Series [7] addresses Helicoverpa armigera GSTs. Nature of the series: Inhibition of total GSTs enzyme of Helicoverpa armigera (CDNB method). The series is classed as biochemical. In short, it runs like this: as §4
For the next series, the target named is PxGSTδ1 (Plutella xylostella, UniProt D7URW9). Nature of the series: Inhibition of PxGSTδ1 recombinant protein. The series is classed as biochemical. The conditions noted are these: read-out: 100 μM Inhibition rate %. In short, it runs like this:
(§5)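 Recombinant Plutella xylostella GSTs (1 μg) preincubated with compound in 100 mM PBS pH 7.2, 10 min, 30 °C; 1 mM CDNB and 1 mM GSH in PBS then added. A340 read every 1 min for 5 min; inhibition from A340 change vs control, IC50 by curve fit, triplicate.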

Another series concerns the target PxGSTσ1 (Plutella xylostella, UniProt Q6F436). The series can be described thus: Inhibition of PxGSTσ1 recombinant protein. Type of series: biochemical. As to conditions: read-out: 100 μM Inhibition rate %. In short, it runs like this: as §5
For another series, the target named is PxGSTσ2 (Plutella xylostella, UniProt Q6F443). The series can be described thus: Inhibition of PxGSTσ2 recombinant protein. The series is classed as biochemical. The conditions noted are these: read-out: 100 μM Inhibition rate %. In a few lines:
as §5

The next series has as its target PxGSTε3 (Plutella xylostella, UniProt O77409). Nature of the series: Inhibition of PxGSTε3 recombinant protein. The series is classed as biochemical. The conditions noted are these: read-out: 100 μM Inhibition rate %. In short, it runs like this: as §5
The mark [8] stands for this setting: Plutella xylostella, read-out: LC50 of chlorantraniliprole solution.
[9] abbreviates: chlorantraniliprole alone or with 200 mg/L synergist.

Counter-ions that a name gives are not always drawn.

Chain of PxGSTδ1 (D7URW9 entry or part of it): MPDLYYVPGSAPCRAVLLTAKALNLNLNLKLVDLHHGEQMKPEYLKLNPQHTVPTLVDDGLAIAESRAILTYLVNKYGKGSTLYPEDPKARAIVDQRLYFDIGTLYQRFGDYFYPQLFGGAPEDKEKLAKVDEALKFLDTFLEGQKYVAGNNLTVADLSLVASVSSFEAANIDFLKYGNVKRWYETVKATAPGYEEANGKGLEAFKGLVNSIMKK
Chain of PxGSTσ1 (Q6F436 entry or part of it): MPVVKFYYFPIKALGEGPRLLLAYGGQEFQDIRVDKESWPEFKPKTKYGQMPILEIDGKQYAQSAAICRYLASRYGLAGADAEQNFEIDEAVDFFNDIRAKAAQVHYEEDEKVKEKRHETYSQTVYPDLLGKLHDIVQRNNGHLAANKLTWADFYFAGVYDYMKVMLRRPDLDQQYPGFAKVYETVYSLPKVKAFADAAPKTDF
Chain of PxGSTε3 (O77409 entry or part of it): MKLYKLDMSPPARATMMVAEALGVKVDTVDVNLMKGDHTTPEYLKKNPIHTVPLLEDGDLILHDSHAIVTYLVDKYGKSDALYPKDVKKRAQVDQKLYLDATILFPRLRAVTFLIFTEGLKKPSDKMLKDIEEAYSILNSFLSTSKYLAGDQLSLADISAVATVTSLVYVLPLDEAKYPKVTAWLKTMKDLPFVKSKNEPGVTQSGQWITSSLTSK
Chain of PxGSTσ2 (Q6F443 entry or part of it): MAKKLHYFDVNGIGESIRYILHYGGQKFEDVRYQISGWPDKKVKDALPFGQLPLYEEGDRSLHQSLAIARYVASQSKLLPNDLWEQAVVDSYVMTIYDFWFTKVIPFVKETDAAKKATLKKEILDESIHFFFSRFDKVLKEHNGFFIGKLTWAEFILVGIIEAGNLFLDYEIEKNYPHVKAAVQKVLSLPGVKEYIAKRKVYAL

Usually LC50 stands for the concentration that kills 50% of the test population. As for `CNC(=O)c1cc(Cl)cc(C)c1NC(=O)c1cc(Br)nn1-c1ncccc1Cl` [Chl, Chlorantraniliprole, reference compound], the LC50 was 110 µg/mL in series [1] (Plutella xylostella, foliar, 48 h, read-out: LC50 of chlorantraniliprole solution); 503 µg/mL in series [2] (setting [8]); 134 µg/mL in series [3] (setting [8]); 145 µg/mL in [4] (setting [8]). Besides, the “Resistance ratio to chlorantraniliprole” value in series [1] was 479; in series [2], 2188.61; in series [3] (setting [9]), 583.74; in series [4] (setting [9]), 631.26.

Turning to `CCOC(=O)/C=C\C(=O)OCC` [DEM, diethyl maleate, reference compound], the “Resistance ratio to chlorantraniliprole” value came to 217.48 in series [1], 1925.26 in series [2], 232 in [3] (setting [9]) and 469.52 in series [4] (setting [9]). Also, the “LC50 of chlorantraniliprole solution” value worked out at 50.02 µg/mL in [1], 442.81 µg/mL in series [2], 53.36 µg/mL in [3] (in vivo) and 107.99 µg/mL in series [4] (in vivo). Further, in [5], the LC50 of indoxacarb is 54.11 µg/mL. The “Resistance ratio to indoxacarb” value in series [5] came to 104.06.

By IC50 is commonly meant the concentration that inhibits the measured activity by half. In general, inhibition refers to the drop in the measured response relative to a control, in per cent. Take `O=C(NNC(=O)c1cc(-c2ccccc2)nn1-c1ccccc1)c1cc[nH]c(=O)c1` [PXG1, N′-(1,3-diphenyl-1H-pyrazol-5-yl-carbonyl)-2-oxo-1,2-dihydropyridinyl-4-carbohydrazide]: the IC50 against Plutella xylostella GSTs worked out at 27.6 µM; on Carposina sasakii GSTs, 52.6 µM; on Spodoptera litura GSTs, 17.7 µM; against Pyrausta nubilalis GSTs, 12.1 µM; against Chilo suppressalis GSTs, 8.24 µM; in series [7], 52.8 µM. Further, the “100 μM Inhibition rate %” value with Plutella xylostella GSTs (100 μM) was found to be 70.90%; with Carposina sasakii GSTs (100 μM) it was 71.91%; in the series with Spodoptera litura GSTs (100 μM) it was 80.06%; in the series with Mythimna separata GSTs, 95.19%; in the series on Pyrausta nubilalis GSTs (100 μM) it was 87.80%; with Chilo suppressalis GSTs (100 μM) it was 92.32%. Besides, the results for the “100 μM Inhibition rate %” value (in the series on Nilaparvata lugens GSTs; in [6]; in [7] (100 μM)) were 100.60%, 58.40% and 77.22%, respectively. The inhibition at 100 µM at PxGSTδ1 was found to be 68.9%; at PxGSTσ1, 25.5%; at PxGSTσ2, 58.1%; on PxGSTε3, 17.6%. Besides, the LC50 of indoxacarb in [5] was determined as 59.13 µg/mL. In addition, in series [5], the “Resistance ratio to indoxacarb” value was found to be 113.71.

As for `O=C(NNC(=O)c1cc(-c2ccccc2)nn1-c1ccccc1)c1cc(=O)[nH]c2ccccc12` [PXG22, N′-(1,3-diphenyl-1H-pyrazol-5-yl-carbonyl)-2-oxo-1,2-dihydroquinoline-4-yl-carbohydrazide], the inhibition at 100 µM on PxGSTδ1 stood at 78.8%; on PxGSTσ1, 45.7%; at PxGSTσ2, 76.7%; at PxGSTε3, 65.8%. The “Resistance ratio to chlorantraniliprole” value turned out to be 61.04 in series [1]; 645.43 in series [2]; 216.91 in series [3] (50 mg/L PXG22 added); 92 in series [3] (100 mg/L PXG22 added); 175.82 in series [3] (setting [9]); 341.48 in series [4] (25 mg/L PXG22 added). For the same molecule, the “Resistance ratio to chlorantraniliprole” value is listed as 312.52 in series [4] (50 mg/L PXG22 added), 195.04 in series [4] (100 mg/L PXG22 added) and 243.13 in series [4] (setting [9]). The “LC50 of chlorantraniliprole solution” value in [1] came out at 14.04 µg/mL; in series [2], 148.45 µg/mL. For the same molecule, the LC50 of indoxacarb in series [5] came to 51.21 µg/mL. For the same molecule, the “Resistance ratio to indoxacarb” value in [5] turned out to be 98.48.
